Results: PMC10412585 (Nature Communications, 2023)

What was measured:
HLA-E = assay: Prometheus differential scanning fluorimetry of HLA-E with peptide; format: binding, human; details: refolded HLA-E*01:03/β2M 9 μg, 50x peptide to MHC ratio, high sensitivity capillary, 1 °C per minute 20-95 °C, first inflection point; DMSO control 33.8
Protocol: Differential scanning fluorimetry (DSF) experiments were performed with a Prometheus NanoTemper NT.48 (Munich, Germany) to measure protein stability, using intrinsic tryptophan fluorescence.
For these experiments, refolded empty HLA-E was generated. Human β2M plus a poly-histidine tag and HLA-E*01:03 extracellular α1, α2, and α3 domains plus an AviTag biotinylation tag were separately codon optimized for E. coli and cloned into the bacterial expression vector pET28a. Inclusion bodies for HLA-E and β2M were made in BL21 E. coli. Inclusion bodies were purified, homogenized, and dissolved, including denaturation in 8 M urea solution. Before refolding, each IB was mixed with an equal volume of Gdn-Cl solution (6 M Guanidine HCl, 500 mM Tris, 2 mM EDTA, 100 mM NaCl) and incubated overnight at 37 °C. β2M was injected dropwise with a 27-gauge needle into refolding buffer (100 mM pH 8.3 Tris, 400 mM L-arginine hydrochloride, 2 mM EDTA, 0.5 mM oxidized glutathione, 5 mM reduced glutathione, 0.2 mM PMSF) and incubated, stirring gently, at 4 °C for 1 h, after which an equal mass of HLA-E heavy chain was similarly injected. This solution incubated at 4 °C overnight, followed by two days of dialysis in 10 mM Tris + 50 mM NaCl. Protein was concentrated in 10 kDa molecular weight cutoff centrifugal concentrators and purified by size exclusion chromatography on an AKTAPURE FPLC (GE Healthcare, Chicago IL), using an S200 column followed by a S75 column.
Individual DSF reactions were set up with 9 μg of MHC and 100×, 50×, or 10× peptide to MHC ratio by molarity (peptides from GenScript). The final reaction volume was 20 μL and reaction mixtures were incubated at room temperature for 20–30 min.
Prometheus excitation power was set such that raw fluorescence counts were between 8000–15000 for each sample. Samples were heated at 1 °C per minute, from 20–95 °C. DSF measurements were taken in duplicate with high-sensitivity and standard capillaries. Melting temperatures were similar for a given peptide across conditions, and representative data from 50x ratio in high sensitivity capillary are presented. A secondary inflection point around 60 °C in most melts is consistent with melting of β2M[76]. […]
Supplemental Figure 9. Differential scanning fluorimetry data generated via Prometheus NanoTemper for predicted peptides with HLA-E. a) Raw 350/330 nm ratios and first derivative for samples. The second inflection point is consistent with β2M unfolding. b) Summary of Tm values for the first inflection point called by Prometheus software for these samples. […]

NKG2A-/NKG2C+ NK cells = assay: NK cell activation assay with peptide-pulsed K562/HLA-E cells, NKG2A-/NKG2C+ NK cells; format: cell-based, human; details: K562/HLA-E target cells, 300 µM peptide ([…] µM BFAR263-271), E:T 2:1, 6 h; degranulation (CD107a), IFN-γ, TNF, CCL3; flow cytometry
NKG2C+ NK cells = assay: NK cell activation assay with peptide-pulsed RMA-S/HLA-E cells; format: cell-based, human; details: RMA-S/HLA-E target cells, 300 µM peptide ([…] µM BFAR263-271), E:T 2:1, 6 h, flow cytometry, n = 3 (n = 2 for some) donors
Protocol: Fig. 4 NK cell stimulation assays. Assessment of effects of peptides on NK cell activity through incubation of NK cells, peptides, and (A) K562/HLA-E or (B) RMA-S/HLA-E target cells. […] Replicates for individual peptides are from different donors, with solid black lines indicating mean values. […] Representative gating for NKG2A^+/NKG2C^- and NKG2A^-/NKG2C^+ NK cells is shown in Supplemental Fig. 14. Source data are provided as a Source Data file.
In contrast to K562 cell lines which are targets for human NK cells, RMA-S cells (a TAP-deficient mouse cell line)[48] are inert to human NK cells and thus will not activate NK cells absent engagement of an activating receptor on the NK cells. […] We performed additional NK cell activation assays with RMA-S/HLA-E cells (Fig. 4B).
All analyses of human data were carried out in compliance with the relevant ethical regulations. Healthy blood donors gave informed consent at DRK Blutspendedienst Nord-Ost, Dresden, Germany, and buffy coats were obtained as approved by Charité ethics committee (EA4/059/17). PBMCs were isolated from human CMV-seropositive buffy coats by density centrifugation over Ficoll Paque Plus (GE Healthcare) and screened for the presence of NKG2C^+ NK cell expansions by flow cytometry to have sufficient frequencies of single-positive cells for parallel assessment of activation and inhibition via HLA-E[47]. Total NK cells from donors with NKG2C^+ expansions (>10% NKG2A^-/NKG2C^+ NK cells) were enriched with CD56 microbeads (Miltenyi Biotec) and cryopreserved in FBS with 10% v/v DMSO. After thawing, NK cells were washed with complete medium, stained with antibodies and Fixable Viability Dye eFluor 780 (Thermo Fisher) for 15 min at 4 °C in PBS, sorted as viable CD56^+ CD3^− cells, and rested in complete media overnight. […] Brefeldin A and Monensin (BD Biosciences) were added after a 1 h culture period. After an additional 5 h, the stimulation was stopped by centrifugation at 4 °C. Cells underwent surface staining, followed by fixation and intracellular staining using Inside Stain Kit (Miltenyi Biotec). Samples were analyzed by flow cytometry on an LSR Fortessa (BD Biosciences). Inhibition of NKG2A^+ NK cells and activation of NKG2C^+ NK cells was assessed by gating on the respective single-positive populations (Supplemental Fig. 14). Antibodies are listed in Supplemental Table 1: anti-human CD56 PE/Dazzle 594 (1:200 dilution), CD3 APC-eFluor 780 (1:50 dilution), anti-human CD159a (NKG2A) Biotin REAfinity (1:50 dilution), anti-human CD159c (NKG2C) PE REAfinity (1:100 dilution), anti-human CD107a (LAMP-1) Alexa Fluor 488 (1:400 dilution), anti-human IFN-γ PE-Vio 770 REAfinity (1:50 dilution), anti-human TNF-α Brilliant Violet 605 (1:50 dilution), anti-human CCL3 (MIP-1α) REAfinity (1:25 dilution).

| Sequence | Tm (HLA-E) [°C] | activating effects on NKG2C+ cells (NKG2A-/NKG2C+ NK cells) | NKG2C-mediated NK cell activation (NKG2C+ NK cells) |
| --- | --- | --- | --- |
| VNPGRSLFL [BFAR263-271, human peptide from Bifunctional apoptosis regulator] | 38.5 | clear activating effects | activation similar to the weaker positive control ([…]) or between the two positive controls |
| VMAPRTLFL [positive control] | 51.5 |  | most potent activating peptide |
